Results: paper PMC5380659, “Unique charge-dependent constraint on collagen recognition by integrin α10β1” (Matrix Biology, 2017)
Entries after “also recorded” stand apart in the source; their conditions may differ.

B1: collagen III: intact collagen III (protein)
chain: QQEAVEGGCSHLGQSYADRDVWKPEPCQICVCDSGSVLCDDIICDDQELDCPNPEIPFGECCAVCPQPPTAPTRPPNGQGPQGPKGDPGPPGIPGRNGDPGIPGQPGSPGSPGPPGICESCPTGPQNYSPQYDSYDVKSGVAVGGLAGYPGPAGPPGPPGPPGTSGHPGSPGSPGYQGPPGEPGQAGPSGPPGPPGAIGPSGPAGKDGESGRPGRPGERGLPGPPGIKGPAGIPGFPGMKGHRGFDGRNGEKGETGAPGLKGENGLPGENGAPGPMGPRGAPGERGRPGLPGAAGARGNDGARGSDGQPGPPGPPGTAGFPGSPGAKGEVGPAGSPGSNGAPGQRGEPGPQGHAGAQGPPGPPGINGSPGGKGEMGPAGIPGAPGLMGARGPPGPAGANGAPGLRGGAGEPGKNGAKGEPGPRGERGEAGIPGVPGAKGEDGKDGSPGEPGANGLPGAAGERGAPGFRGPAGPNGIPGEKGPAGERGAPGPAGPRGAAGEPGRDGVPGGPGMRGMPGSPGGPGSDGKPGPPGSQGESGRPGPPGPSGPRGQPGVMGFPGPKGNDGAPGKNGERGGPGGPGPQGPPGKNGETGPQGPPGPTGPGGDKGDTGPPGPQGLQGLPGTGGPPGENGKPGEPGPKGDAGAPGAPGGKGDAGAPGERGPPGLAGAPGLRGGAGPPGPEGGKGAAGPPGPPGAAGTPGLQGMPGERGGLGSPGPKGDKGEPGGPGADGVPGKDGPRGPTGPIGPPGPAGQPGDKGEGGAPGLPGIAGPRGSPGERGETGPPGPAGFPGAPGQNGEPGGKGERGAPGEKGEGGPPGVAGPPGGSGPAGPPGPQGVKGERGSPGGPGAAGFPGARGLPGPPGSNGNPGPPGPSGSPGKDGPPGPAGNTGAPGSPGVSGPKGDAGQPGEKGSPGAQGPPGAPGPLGIAGITGARGLAGPPGMPGPRGSPGPQGVKGESGKPGANGLSGERGPPGPQGLPGLAGTAGEPGRDGNPGSDGLPGRDGSPGGKGDRGENGSPGAPGAPGHPGPPGPVGPAGKSGDRGESGPAGPAGAPGPAGSRGAPGPQGPRGDKGETGERGAAGIKGHRGFPGNPGAPGSPGPAGQQGAIGSPGPAGPRGPVGPSGPPGKDGTSGHPGPIGPPGPRGNRGERGSEGSPGHPGQPGPPGPPGAPGPCCGGVGAAAIAGIGGEKAGGFAPYYG

Tests used:
α10β1 = assay: Overall recognition by α10β1 (I domain and C2C12-α10β1 cells, summary); settings: abstract and discussion; I domain and/or C2C12-α10β1 cells
Protocol: I domain adhesion was determined colorimetrically, as described, here termed solid phase binding assay (SPBA). Peptides were coated at 10 μg/ml for 1 h at 22 °C on Immulon-2 HB 96-well plates (Thermo Life Sciences, Basingstoke, UK), and blocked for 1 h with 200 μl of TBS containing 50 mg/ml bovine serum albumin. Wells were washed four times with 200 μl of the adhesion buffer (TBS with 1 mg/ml bovine serum albumin) before adding 100 μl of adhesion buffer containing 10 μg/ml of recombinant GST I domains in the presence of either 2 mM MgCl2 or EDTA for 1 h at room temperature. Wells were washed five times with 200 μl of adhesion buffer containing MgCl2 or EDTA, before adding 100 μl of adhesion buffer containing the anti-GST-HRP conjugate at 1:10,000 dilution for 1 h at room temperature. After washing, colour was developed using an ImmunoPure TMB Substrate Kit (Pierce) according to the manufacturer's instructions.
(§1) The mouse myoblast cell line, C2C12, (control and transfectants, C2C12-α1β1, C2C12-α2β1, C2C12-α10β1 or C2C12-α11β1) was maintained in RPMI medium containing 10% fetal bovine serum, 2 mM glutamine, 100 IU/ml penicillin, 100 μg/ml streptomycin, and 2.5 μg/ml amphotericin. Cells were harvested by centrifugation, washed, and suspended at 0.5 × 10^6/ml in Tris-buffered saline supplemented with 5.5 mM glucose and either 2 mM EDTA or 2 mM MgCl2. SPBA was performed as follows: 100 μl of the cell suspension was added to peptide-coated wells [42] at 20 °C for 60 min. Cell adhesion was determined colorimetrically after lysis, using a lactate dehydrogenase (LDH)-based cell detection kit (Roche Diagnostics) according to the supplier's instructions.
(§2) To quantitate C2C12-α10β1 binding to collagen peptides, we used the impedance-based xCELLigence system (Acea) that allows label-free, dynamic monitoring of cell adhesion in real-time. The assay system expresses the adhesion-dependent rise in well impedance in units of cell index (CI), defined as (Rn − Rb) / 15; where Rn is the electrical impedance of each cell-containing well and Rb is the background impedance of the well with medium alone

C2C12-α10β1 cells [1] = assay: LDH-based SPBA of C2C12-α10β1 cell adhesion; parameters: species or system mouse; settings: short THPs, 2 mM Mg^2 +, 1 h, Fig. 4B
Protocol: The mouse myoblast cell line, C2C12-α10β1 clone, expresses α10β1 as its sole collagen-binding integrin [16]. To investigate the binding of α10β1 to collagen in a cellular and whole integrin context, therefore, the adhesion of C2C12-α10β1 cells to Toolkits II and III was performed using two different approaches. First, SPBA was used, with lactate dehydrogenase to report the presence of adherent cells, after lysis, as described in Experimental. […] C2C12-α10B1 cells generally bound more prominently to those weaker peptides that supported just-observable binding of free I-domain. This may reflect avidity of the receptor-populated cell surface for the peptide-coated wells, or perhaps up-regulation of integrin affinity following receptor engagement. It is also possible that some cell binding reflects specific indirect interactions. For example, fibronectin, available either by intrinsic expression or from the serum supplement, binds well to II-44, and can also bind integrin αVβ3 [21].
Fig. 2 Binding of α10β1-transfected C2C12 cells to Collagen Toolkits. 96-well plates were coated with peptides as for Fig. 1, then C2C12-α10β1 cells (5 × 10^4 per well) were added and incubated for 1 h in the presence of either 2 mM MgCl2 or 2 mM EDTA as above. A: binding to Toolkit II. B: binding to Toolkit III.
as §1

integrin α1β1 = test system: integrin α1β1; parameters: method as in 3 sources, ref [4]; PMID 19693543; doi:10.1007/s00441-009-0834-6; 4 Barczyk M. Carracedo S. Gullberg D. Integrins Cell Tissue Res. 339 1 2010 269 280 19693543 10.1007/s00441-009-0834-6 PMC2784866 ||| ref [12] = [12]; PMID 22654115; doi:10.1074/jbc.M112.353144; 12 Hamaia S.W. Pugh N. Raynal N. Nemoz B. Stone R. Gullberg D. Bihan D. Farndale R.W. Mapping of potent and specific binding motifs, GLOGEN and GVOGEA, for integrin alpha1beta1 using collagen toolkits ||| ref not given; settings: ref [12]; cited from earlier work
Source text: The collagen-binding integrin family is complete, with four established members, α1β1, α2β1, α10β1 and α11β1. These are highly-conserved, heterodimeric receptors with an important structural feature in common, the presence of an I (inserted) domain which contains the metal ion-dependent adhesion site (MIDAS). The MIDAS is a constellation of electronegative residues at the distal surface of this 200-residue domain that, in the resting, non-ligated state, can co-ordinate a Mg^2 + ion. […] Many related motifs have now been identified using the Collagen Toolkits developed in this laboratory for the purpose. These are libraries of overlapping peptides of 27 amino acids of collagen primary sequence (guest sequence), flanked ... || Why would collagen II differ in this respect?

α2β1 = test system: α2β1; parameters: method as in 4 sources, ref [8], [10] = [8]; PMID 16326707; doi:10.1074/jbc.M509818200; 8 Raynal N. Hamaia S.W. Siljander P.R. Maddox B. Peachey A.R. Fernandez R. Foley L.J. Slatter D.A. Jarvis G.E. Farndale R.W. Use of synthetic peptides to locate novel integrin alpha2beta1-binding moti || [10]; PMID 16043429; doi:10.1074/jbc.M502431200; 10 Kim J.K. Xu Y. Xu X. Keene D.R. Gurusiddappa S. Liang X. Wary K.K. Hook M. A novel binding site in collagen type III for the integrins, alpha 1beta 1 and alpha 2beta 1 J. Biol. Chem. 280 2005 32512 ||| ref not given ||| ref [4] = [4]; PMID 19693543; doi:10.1007/s00441-009-0834-6; 4 Barczyk M. Carracedo S. Gullberg D. Integrins Cell Tissue Res. 339 1 2010 269 280 19693543 10.1007/s00441-009-0834-6 PMC2784866 ||| ref [12] = [12]; PMID 22654115; doi:10.1074/jbc.M112.353144; 12 Hamaia S.W. Pugh N. Raynal N. Nemoz B. Stone R. Gullberg D. Bihan D. Farndale R.W. Mapping of potent and specific binding motifs, GLOGEN and GVOGEA, for integrin alpha1beta1 using collagen toolkits; settings: cited from earlier work
C2C12-α10β1 cells [2] = assay: xCELLigence real-time adhesion of C2C12-α10β1 cells; assay type: cell-based, mouse; settings: 2.5 × 10^4 cells/well, 2 mM Mg^2 +, over 1 h, Fig. 3A
Protocol: Fig. 3 Binding of α10β1-transfected C2C12 cells to collagens and selected Toolkit peptides. Peptides or collagens were coated on ePlates as described, then cells were added in the presence of 2 mM Mg^2 + or EDTA, and Cell Index value was collected over 1 h. […] B: time courses are shown of adhesion to selected Toolkit peptides or GPP-10.
as §2
Briefly, C2C12 cells were seeded at 2.5 × 10^4 cells/well in an E-plate (Roche Applied Science) pre-coated with peptides as for SPBA, and CI was measured for up to 2 h.

Row | Molecule | Recognition by α10β1, summary (α10β1) | Adhesion of C2C12-α10β1 cells to short triple-helical peptides (C2C12-α10β1 cells [1]) | other results
1 | GAOGER [integrin motif in collagens II, III, IV, VI, VII, IX] | weak ligand |  | 
2 | GFOGEK [short triple-helical peptide; motif in collagens IV, VI, X] | now shown to bind α10β1 | less well | 
3 | GKOGER [motif occurring only in collagen X and in the α2 chain of collagen I] | compromised in the context of α10β1; also recorded: α10-repellent |  | 
4 | GLKGEN [short triple-helical peptide containing GLKGEN] |  | less well | 
5 | GLOGEA [short triple-helical peptide; motif in collagens IV, XI, XXVII] |  | bound strongly | 
6 | GMOGER [short triple-helical peptide containing GMOGER] |  | less well | 
7 | GRSGET [short THP containing GRSGET, motif unique to collagen II] | not recognised by α10β1; also recorded: α10-repellent |  | 
8 | GVOGEA [integrin motif in collagen II] | moderately good ligand for α10β1 |  | Affinity for integrin α1β1 (integrin α1β1): moderate ligand; Affinity for α2β1 (α2β1; ref [12]): little affinity for α2β1
9 | collagen I: intact collagen I |  |  | Cell adhesion to collagens (Cell Index, endpoint) (C2C12-α10β1 cells [2]): bound quite well; Preferred ligand of α2β1 (α2β1; ref [4]): preferred ligand
10 | B1 |  |  | Cell adhesion to collagens (Cell Index, endpoint) (C2C12-α10β1 cells [2]): bound quite well
